Experimental findings from patent US11661422B2, “Tricyclic urea compounds as JAK2 V617F inhibitors” (Incyte Corporation, priority 2020, dated 2023) are described below.

Where a name gives a salt, the structure may show the parent alone. Bounds are passed on as bounds.

Assay [1] deals with catalytic domain (JH1, amino acids 808-1132) of human JAK2 (Homo sapiens (Human), UniProt O60674). Briefly: JAK2 HTRF Enzyme Activity Assay. The class given is biochemical. Conditions: JAK2 0.015 nM, ATP (30 μM or 1 mM), 60 minutes at 25° C. The protocol:
Example D. JAK2 HTRF Enzyme Activity Assay
JAK2 enzyme activity assays utilize catalytic domain (JH1, amino acids 808-1132) of human JAK2 expressed as N-terminal His-tagged protein in a baculovirus expression system (BPS Bioscience, Catalog #40450). The assays was conducted in black 384-well polystyrene plates in a final reaction volume of 20 μL. JAK2 (0.015 nM) was incubated with compounds (100 nL serially diluted in DMSO) in the presence of ATP (30 μM or 1 mM) and 500 nM Biotin-labeled […] (SEQ ID NO.: 1) peptide (BioSource International, custom synthesis) in assay buffer (50 mM Tris, pH=7.5, 10 mM MgCl2, 0.01% Brij-35, 0.1% BSA, 1 mM EGTA, 5% Glycerol and 5 mM DTT) for 60 minutes at 25° C. The reactions were stopped by the addition of 10 μL of detection buffer (50 mM Tris, pH 7.8, 0.5 mg/mL BSA, 150 mM NaCl), supplemented with EDTA, LANCE Eu-W1024 anti-phosphotyrosine (PY20), (PerkinElmer, Catalog #AD0067) and Streptavidin SureLight APC (PerkinElmer Catalog #CR130-100), for a final concentration of 15 mM, 1.5 nM and 75 nM, respectively. HTRF signals were read after 30 minutes incubation at room temperature on a PHERAstar FS plate reader (BMG LABTECH). Data was analyzed with IDBS XLfit and GraphPad Prism 5.0 software using a four parameter dose response curve to determine IC50 for each compound.

Assay [2] deals with pseudo-kinase domain (JH2, amino-acids 536-812) of human V617F mutant JAK2 (Homo sapiens (Human), UniProt O60674, F794H/V617F/W659A/W777A). Briefly: JAK2 LanthaScreen JH2-V617F Binding Assay. Conditions: JAK2 JH2-V617F 0.26 nM, 50 nM fluorescent tracer, 1 hour at 25° C.; read-out: JH2 BIND V617F IC50. As to the method:
The assay was conducted in black 384-well polystyrene plates in a final reaction volume of 20 μL. […] Non-specific binding was accessed in the presence of 2 mM ATP. After incubation for 1 hour at 25° C., LanthaScreen signals were read on a PHERAstar FS plate reader (BMG LABTECH). Data was analyzed with IDBS XLfit and GraphPad Prism 5.0 software using a four parameter dose response curve to determine IC50 for each compound.
A general note: TR-FRET usually uses a lanthanide donor and a delayed reading to cut background.

Assay [3] deals with pseudo-kinase domain (JH2, amino-acids 536-812) of human Wild Type JAK2 (Homo sapiens (Human), UniProt O60674, F794H/W659A/W777A). The assay can be described thus: JAK2 LanthaScreen JH2-WT Binding Assay. Conditions: JAK2 JH2-WT 0.145 nM, 50 nM fluorescent tracer, 1 hour at 25° C.; read-out: JH2 BIND WT IC50. The protocol:
Example B. JAK2 LanthaScreen JH2-WT Binding Assay
(§1) The assay was conducted in black 384-well polystyrene plates in a final reaction volume of 20 μL. JAK2 JH2-WT (0.145 nM) was incubated with compounds (100 nL serially diluted in DMSO) in the presence of 50 nM Fluorescent JAK2-JH2 Tracer (MedChem Express Catalog #HY-102055) and 0.25 nM Streptavidin-Tb cryptate (Cisbio Part #610SATLB) in assay buffer (50 mM Tris, pH=7.5, 10 mM MgCl2, 0.01% Brij-35, 0.1% BSA, 1 mM EGTA, 5% Glycerol and 5 mM DTT). Non-specific binding was accessed in the presence of 2 mM ATP. After incubation for 1 hour at 25° C., LanthaScreen signals were read on a PHERAstar FS plate reader (BMG LABTECH). Data was analyzed with IDBS XLfit and GraphPad Prism 5.0 software using a four parameter dose response curve to determine IC50 for each compound.

Assay [4] concerns the target catalytic domain (JH1, amino acids 826-1132) of human JAK2 (Homo sapiens (Human), UniProt O60674). The assay can be described thus: JAK2 LanthaScreen JH1 Binding Assay. Conditions: JAK2 JH1 1.5 nM, 50 nM fluorescent tracer, 2 hours at 25° C.; read-out: JH1 BIND IC50. As to the method: Example A. JAK2 LanthaScreen JH1 Binding Assay
as §1, with “JAK2 JH1 binding assay utilizes catalytic domain (JH1, amino acids 826-1132) of human JAK2 expressed as N-terminal FLAG-tagged, biotinylated protein in a baculovirus expression system (Carna Biosciences, Product #08-445-20N). The” for “The”, “JH1 (1.5” for “JH2-WT (0.145”, “JAK2-JH1” for “JAK2-JH2”, “Tracer” for “Tracer (MedChem Express Catalog #HY-102055)”, “0.5” for “0.25”, “2 hours” for “1 hour”

Chain of pseudo-kinase domain (JH2, amino-acids 536-812) of human Wild Type JAK2 (O60674 536-812 W659A/W777A/F794H): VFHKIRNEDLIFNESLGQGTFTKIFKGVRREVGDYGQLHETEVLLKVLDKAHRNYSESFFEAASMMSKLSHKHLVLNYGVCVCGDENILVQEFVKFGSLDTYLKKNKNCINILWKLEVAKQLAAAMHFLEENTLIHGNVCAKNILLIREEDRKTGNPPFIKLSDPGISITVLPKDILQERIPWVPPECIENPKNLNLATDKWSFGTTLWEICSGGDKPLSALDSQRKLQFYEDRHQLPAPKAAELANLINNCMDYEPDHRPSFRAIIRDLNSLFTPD
Chain of catalytic domain (JH1, amino acids 808-1132) of human JAK2 (O60674 808-1132): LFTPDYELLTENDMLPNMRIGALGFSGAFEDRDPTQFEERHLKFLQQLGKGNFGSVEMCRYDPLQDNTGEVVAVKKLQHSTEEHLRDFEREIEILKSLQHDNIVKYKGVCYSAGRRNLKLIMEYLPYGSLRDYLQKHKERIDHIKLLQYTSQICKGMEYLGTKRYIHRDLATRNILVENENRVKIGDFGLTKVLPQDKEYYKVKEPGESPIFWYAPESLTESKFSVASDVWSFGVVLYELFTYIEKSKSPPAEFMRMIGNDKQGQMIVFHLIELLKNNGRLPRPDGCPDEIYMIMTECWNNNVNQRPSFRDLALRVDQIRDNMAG
Chain of catalytic domain (JH1, amino acids 826-1132) of human JAK2 (O60674 826-1132): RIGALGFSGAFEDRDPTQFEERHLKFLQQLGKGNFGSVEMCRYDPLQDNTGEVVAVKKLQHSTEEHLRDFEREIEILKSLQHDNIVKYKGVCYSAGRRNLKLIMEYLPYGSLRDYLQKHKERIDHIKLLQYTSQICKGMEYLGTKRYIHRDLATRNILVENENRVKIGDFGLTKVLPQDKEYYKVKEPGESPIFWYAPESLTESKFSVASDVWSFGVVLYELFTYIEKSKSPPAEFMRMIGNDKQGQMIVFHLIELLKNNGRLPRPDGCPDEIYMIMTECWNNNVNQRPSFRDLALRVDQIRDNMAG
Chain of pseudo-kinase domain (JH2, amino-acids 536-812) of human V617F mutant JAK2 (O60674 536-812 V617F/W659A/W777A/F794H): as the sequence (O60674 536-812 W659A/W777A/F794H) above, with V82F counted along it

A word on the IC50: it is the midpoint of a concentration-inhibition curve. As for `COCCNc1ccc(N2Cc3c(cnc4[nH]c(-c5ccc(CN6CCC(S(C)(=O)=O)CC6)cc5)cc34)N(C)C2=O)cc1` [Example 8, 2-(4-((2-Methoxyethyl)amino)phenyl)-4-methyl-8-(4-((4-(methylsulfonyl)piperidin-1-yl)methyl)phenyl)-1,2,4,7-tetrahydro-3H-pyrrolo[3′,2′:5,6]pyrido[3,4-d]pyrimidin-3-one], the IC50 in assay [1] is 100 to 500 nM; in assay [2], 500 to 1000 nM; in assay [3], 100 to 500 nM; in assay [4], 100 to 500 nM.

As to `COc1ccc(-c2c(-c3ccc(CN4CCC(S(C)(=O)=O)CC4)cc3)[nH]c3ncc4c(c23)CN(c2ccc(C(=O)NCC(=O)NNCc3ccccc3)cc2)C(=O)N4C)cc1` [Example 13, N-(2-(2-Benzylhydrazineyl)-2-oxoethyl)-4-(9-(4-methoxyphenyl)-4-methyl-8-(4-((4-(methylsulfonyl)piperidin-1-yl)methyl)phenyl)-3-oxo-1,3,4,7-tetrahydro-2H-pyrrolo[3′,2′: 5,6]pyrido[3,4-d]pyrimidin-2-yl)benzamide, TFA], the IC50 in assay [1] and in assay [4] was 1000 to 2500 nM in each case.

For `CN1C(=O)N(c2ccc(C(=O)O)cc2)Cc2c1cnc1[nH]c(-c3ccc(CN4CCC(S(C)(=O)=O)CC4)cc3)c(I)c21` [Example 25, 4-(9-Iodo-4-methyl-8-(4-((4-(methylsulfonyl)piperidin-1-yl)methyl)phenyl)-3-oxo-1,3,4,7-tetrahydro-2H-pyrrolo[3′,2′:5,6]pyrido[3,4-d]pyrimidin-2-yl)benzoic acid Trifluoroacetic Acid Salt], the IC50 in assay [1] was 1000 to 2500 nM; in assay [2], at most 100 nM; in assay [3], at most 100 nM; in assay [4] it was 500 to 1000 nM.

Take `CN1C(=O)N(c2ccc(C(=O)O)cc2)Cc2c1cnc1[nH]c(-c3ccc(CN4CCC(S(C)(=O)=O)CC4)cc3)c(-c3ccn(C)c3)c21` [Example 22, 4-(4-Methyl-9-(1-methyl-1H-pyrrol-3-yl)-8-(4-((4-(methylsulfonyl)piperidin-1-yl)methyl)phenyl)-3-oxo-1,3,4,7-tetrahydro-2H-pyrrolo[3′,2′:5,6]pyrido[3,4-d]pyrimidin-2-yl)benzoic acid trifluoroacetic acid salt]: the IC50 was 1000 to 2500 nM in assay [1], at most 100 nM in assay [2], at most 100 nM in assay [3] and 1000 to 2500 nM in assay [4].

As to `CN1C(=O)N(c2ccc(C(=O)O)cc2)Cc2c1cnc1[nH]c(-c3ccc(CN4CCC(S(C)(=O)=O)CC4)cc3)cc21` [Example 3, 4-(4-Methyl-8-(4-((4-(methylsulfonyl)piperidin-1-yl)methyl)phenyl)-3-oxo-1,3,4,7-tetrahydro-2H-pyrrolo[3′,2′:5,6]pyrido[3,4-d]pyrimidin-2-yl)benzoic Acid], the IC50 in assay [1] is 1000 to 2500 nM; in assay [2], at most 100 nM; in assay [3], at most 100 nM; in assay [4], 1000 to 2500 nM.

Regarding `CN1C(=O)N(c2ccc(C(=O)O)cc2)Cc2c1cnc1[nH]c(-c3ccc(CN4CCC(S(C)(=O)=O)CC4)cc3)c(-c3ccc(C4(N)CC4)cc3)c21` [Example 21, 4-(9-(4-(1-Aminocyclopropyl)phenyl)-4-methyl-8-(4-((4-(methylsulfonyl)piperidin-1-yl)methyl)phenyl)-3-oxo-1,3,4,7-tetrahydro-2H-pyrrolo[3′,2′:5,6]pyrido[3,4-d]pyrimidin-2-yl)benzoic acid trifluoroacetic acid salt (1:2)], the half-inhibitory concentration (IC50) in assay [1] is above 2500 nM; in assay [2], at most 100 nM; in assay [3], at most 100 nM; in assay [4], 1000 to 2500 nM.

Take `CC(=O)N1CC=C(c2c(-c3ccc(CN4CCC(S(C)(=O)=O)CC4)cc3)[nH]c3ncc4c(c23)CN(c2ccc(C(=O)O)cc2)C(=O)N4C)CC1` [Example 20, 4-(9-(1-Acetyl-1,2,3,6-tetrahydropyridin-4-yl)-4-methyl-8-(4-((4-(methylsulfonyl)piperidin-1-yl)methyl)phenyl)-3-oxo-1,3,4,7-tetrahydro-2H-pyrrolo[3′,2′:5,6]pyrido[3,4-d]pyrimidin-2-yl)benzoic acid Trifluoroacetic Acid Salt]: the IC50 in assay [1] is above 2500 nM; in assay [2] it was at most 100 nM; in assay [3], at most 100 nM; in assay [4], above 2500 nM.

Take `CN1C(=O)N(C(C)(C)C)Cc2c1cnc1[nH]c(-c3ccc(CN4CCC(S(C)(=O)=O)CC4)cc3)c(-c3ccc(C(=O)NCC4(C#N)CC4)cc3)c21` [Example 14, 4-(2-(tert-Butyl)-4-methyl-8-(4-((4-(methylsulfonyl)piperidin-1-yl)methyl)phenyl)-3-oxo-2,3,4,7-tetrahydro-1H-pyrrolo[3′,2′:5,6]pyrido[3,4-d]pyrimidin-9-yl)-N-((1-cyanocyclopropyl)methyl)benzamide Trifluoroacetic Acid]: the IC50 in assay [1], in assay [2], in assay [3] and in assay [4] was at most 100 nM each time.

As to `CN1C(=O)N(c2ccccc2)Cc2c1cnc1[nH]c(-c3ccc(CN4CCC(S(C)(=O)=O)CC4)cc3)cc21` [Example 2, 4-Methyl-8-(4-((4-(methylsulfonyl)piperidin-1-yl)methyl)phenyl)-2-phenyl-1,2,4,7-tetrahydro-3H-pyrrolo[3′,2′:5,6]pyrido[3,4-b]pyrimidin-3-one], the half-inhibitory concentration (IC50) in assay [1] is at most 100 nM; in assay [2], 500 to 1000 nM; in assay [3], 100 to 500 nM; in assay [4], at most 100 nM.

With `COc1ccc(-c2c(-c3ccc(CN4CCC(S(C)(=O)=O)CC4)cc3)[nH]c3ncc4c(c23)CN(c2ccc(C(=O)Nc3cccnc3)cc2)C(=O)N4C)cc1` [Example 11, 4-(9-(4-Methoxyphenyl)-4-methyl-8-(4-((4-(methylsulfonyl)piperidin-1-yl)methyl)phenyl)-3-oxo-1,3,4,7-tetrahydro-2H-pyrrolo[3′,2′:5,6]pyrido[3,4-d]pyrimidin-2-yl)-N-(pyridin-3-yl)benzamide, Bistrifluoroacetic Acid Salt], the IC50 in assay [1] is above 2500 nM; in assay [2], at most 100 nM; in assay [3] it was at most 100 nM; in assay [4], above 2500 nM.
